pIC50: −log10 of the molar value.
What was measured:
MCF7 [1] = experiment: Antitumor activity against human MCF7 cells xenograft model assessed as tumor growth inhibition at 90 mg/kg relative to control; format: functional; conditions: read-out: TGI
MCF7 [2] = experiment: Antitumor activity against human MCF7 cells xenograft model assessed as tumor growth inhibition at 120 mg/kg relative to control; format: functional; conditions: read-out: TGI
MCF7 [3] = experiment: Antitumor activity against human MCF7 cells xenograft model assessed as tumor growth inhibition at 30 mg/kg relative to control; format: functional; conditions: read-out: TGI
MCF7 [4] = experiment: Antitumor activity against human MCF7 cells xenograft model assessed as tumor growth inhibition at 60 mg/kg relative to control; format: functional; conditions: read-out: TGI
[5] = Volume of distribution at steady state in Sprague-Dawley rat at 5 mg/kg, iv measured upto 24 hrs by LC-MS/MS analysis; format: ADME, organism-based; conditions: in vivo, read-out: Vdss
MCF7 [6] = experiment: Growth inhibition of human MCF7 cells; format: functional
[7] = Half life in cynomolgus monkey at 5 mg/kg, iv measured upto 24 hrs by LC-MS/MS analysis; format: ADME, organism-based, Macaca fascicularis; conditions: in vivo
[8] = Half life in Sprague-Dawley rat at 5 mg/kg, iv measured upto 24 hrs by LC-MS/MS analysis; format: ADME, organism-based; conditions: in vivo
[9] = Volume of distribution at steady state in cynomolgus monkey at 5 mg/kg, iv measured upto 24 hrs by LC-MS/MS analysis; format: ADME, organism-based, Macaca fascicularis; conditions: in vivo, read-out: Vdss
[10] = Oral bioavailability in Sprague-Dawley rat at 10 mg/kg measured upto 24 hrs by LC-MS/MS analysis; format: ADME, organism-based; conditions: in vivo
[11] = AUC in Sprague-Dawley rat at 10 mg/kg, po measured upto 24 hrs by LC-MS/MS analysis; format: ADME, organism-based; set-up: time < 24 hrs, dose 10 mg/kg, route po; conditions: in vivo
[12] = Oral bioavailability in cynomolgus monkey at 10 mg/kg measured upto 24 hrs by LC-MS/MS analysis; format: ADME, organism-based, Macaca fascicularis; conditions: in vivo
[13] = Clearance in cynomolgus monkey at 5 mg/kg, iv measured upto 24 hrs by LC-MS/MS analysis; format: ADME, organism-based, Macaca fascicularis; conditions: in vivo
[14] = Cmax in Sprague-Dawley rat at 10 mg/kg, po measured upto 24 hrs by LC-MS/MS analysis; format: ADME, organism-based; set-up: dose 10 mg/kg, time < 24 hrs, route po; conditions: in vivo
[15] = AUC in cynomolgus monkey at 10 mg/kg, po measured upto 24 hrs by LC-MS/MS analysis; format: ADME, organism-based, Macaca fascicularis; set-up: dose 10 mg/kg, time < 24 hrs, route po; conditions: in vivo
[16] = Cmax in cynomolgus monkey at 10 mg/kg, po measured upto 24 hrs by LC-MS/MS analysis; format: ADME, organism-based, Macaca fascicularis; set-up: time < 24 hrs, dose 10 mg/kg, route po; conditions: in vivo
MCF7 [17] = experiment: Antiproliferative activity against human MCF7 cells harboring wild type ERalpha assessed as inhibition of cell growth incubated for 6 to 7 days by high content imaging assay; format: functional, cell-based
MCF7 [18] = experiment: Antiproliferative activity against human MCF7 cells harboring ERalpha Y537N mutant assessed as inhibition of cell growth incubated for 6 to 7 days by high content imaging assay; format: functional, cell-based
[19] = target: T1, Progesterone receptor (Homo sapiens) (UniProt P06401); experiment: Inhibition of PGR transcription in human MCF7 harboring ERalpha […] mutant measured upto 96 hrs by qPCR analysis relative to control; format: cell-based
T1 sequence (whole entry): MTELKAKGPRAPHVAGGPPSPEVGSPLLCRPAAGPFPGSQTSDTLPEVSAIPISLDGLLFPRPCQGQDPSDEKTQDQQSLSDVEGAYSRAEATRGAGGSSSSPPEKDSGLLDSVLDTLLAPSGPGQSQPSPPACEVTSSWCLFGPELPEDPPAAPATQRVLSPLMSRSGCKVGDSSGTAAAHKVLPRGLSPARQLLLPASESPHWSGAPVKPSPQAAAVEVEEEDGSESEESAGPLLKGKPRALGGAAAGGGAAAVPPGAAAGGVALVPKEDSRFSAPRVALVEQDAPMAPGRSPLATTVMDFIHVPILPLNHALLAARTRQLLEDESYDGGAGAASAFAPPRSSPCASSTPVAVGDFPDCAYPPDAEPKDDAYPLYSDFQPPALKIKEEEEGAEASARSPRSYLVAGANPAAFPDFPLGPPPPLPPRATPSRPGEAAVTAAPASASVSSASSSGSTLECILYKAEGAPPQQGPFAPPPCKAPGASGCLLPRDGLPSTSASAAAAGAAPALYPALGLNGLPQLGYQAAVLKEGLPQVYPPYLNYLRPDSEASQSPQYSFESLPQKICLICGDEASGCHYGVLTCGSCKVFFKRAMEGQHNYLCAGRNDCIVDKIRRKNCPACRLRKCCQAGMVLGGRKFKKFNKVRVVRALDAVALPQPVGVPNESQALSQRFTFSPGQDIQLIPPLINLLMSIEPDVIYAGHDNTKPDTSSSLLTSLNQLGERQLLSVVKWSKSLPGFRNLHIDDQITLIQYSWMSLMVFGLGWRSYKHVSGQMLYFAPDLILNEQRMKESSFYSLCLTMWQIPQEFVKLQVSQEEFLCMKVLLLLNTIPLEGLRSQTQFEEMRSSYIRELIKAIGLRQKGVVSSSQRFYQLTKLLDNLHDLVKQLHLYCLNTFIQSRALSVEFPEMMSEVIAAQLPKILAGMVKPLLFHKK

[20] = target: T1, Progesterone receptor (Homo sapiens); experiment: Inhibition of PGR transcription in human MCF7 harboring wild type ERalpha measured upto 96 hrs by qPCR analysis relative to control; format: cell-based
[21] = Antitumor activity in tamoxifen-resistant human MCF7 cells xenografted in 17beta-estradiol-treated NOD/SCID mouse model assessed as tumor growth inhibition at 60 mg/kg, po QD for 28 days relative to control; format: functional; conditions: tamoxifen-resistant MCF7 cell, 672 h, time 28 day, read-out: TGI
MCF7 [22] = experiment: animal or person; conditions: Mus musculus, MCF7, po, 672 h, read-out: TGI
Description: Antitumor activity in human MCF7 cells xenografted in 17beta-estradiol-treated NOD/SCID mouse model assessed as tumor growth inhibition at 30 mg/kg, po QD for 28 days relative to control

[23] = target: T2, Protein cereblon/Estrogen receptor (Homo sapiens) (UniProt P03372+Q96SW2); experiment: Protac activity at E3 ubiquitin-protein ligase/ERalpha in human MCF7 cells xenografted in 17beta-estradiol-treated NOD/SCID mouse model assessed as reduction in ERalpha degradation at 3 mg/kg and measured after 18 hrs post last dose relative to control; format: organism-based; set-up: scale not given: the % may be the effect or the level left
T2 sequence (P03372 whole entry, looked up): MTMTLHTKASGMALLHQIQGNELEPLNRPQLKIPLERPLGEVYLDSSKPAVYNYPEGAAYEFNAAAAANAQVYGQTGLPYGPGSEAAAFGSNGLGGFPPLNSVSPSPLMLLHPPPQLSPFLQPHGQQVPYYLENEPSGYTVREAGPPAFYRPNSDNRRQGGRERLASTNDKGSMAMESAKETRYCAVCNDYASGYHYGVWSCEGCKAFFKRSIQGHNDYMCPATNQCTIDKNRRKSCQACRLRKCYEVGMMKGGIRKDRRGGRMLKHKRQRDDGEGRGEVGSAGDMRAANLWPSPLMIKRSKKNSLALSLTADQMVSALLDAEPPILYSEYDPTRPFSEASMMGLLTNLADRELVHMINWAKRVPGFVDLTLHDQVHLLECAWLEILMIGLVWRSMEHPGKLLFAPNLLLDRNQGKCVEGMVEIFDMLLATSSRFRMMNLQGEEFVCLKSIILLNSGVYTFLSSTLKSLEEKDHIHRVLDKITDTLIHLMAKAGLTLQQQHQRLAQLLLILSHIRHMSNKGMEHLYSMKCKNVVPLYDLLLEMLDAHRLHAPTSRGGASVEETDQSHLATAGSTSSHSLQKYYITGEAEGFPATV
T2 sequence (Q96SW2 whole entry, looked up): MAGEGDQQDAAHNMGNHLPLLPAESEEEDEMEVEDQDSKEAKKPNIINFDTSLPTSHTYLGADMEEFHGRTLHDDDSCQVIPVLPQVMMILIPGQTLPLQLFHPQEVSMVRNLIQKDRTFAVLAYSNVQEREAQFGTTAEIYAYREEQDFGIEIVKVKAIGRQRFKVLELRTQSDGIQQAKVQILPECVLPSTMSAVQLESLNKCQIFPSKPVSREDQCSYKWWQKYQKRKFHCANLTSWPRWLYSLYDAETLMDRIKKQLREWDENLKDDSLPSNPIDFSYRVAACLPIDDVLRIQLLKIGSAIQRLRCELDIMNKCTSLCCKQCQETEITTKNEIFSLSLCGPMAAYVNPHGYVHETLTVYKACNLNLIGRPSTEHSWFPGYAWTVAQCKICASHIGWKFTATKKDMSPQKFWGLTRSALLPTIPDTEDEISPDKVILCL

[24] = target: T2, Protein cereblon/Estrogen receptor (Homo sapiens); experiment: Protac activity at E3 ubiquitin-protein ligase/ERalpha in human MCF7 cells xenografted in 17beta-estradiol-treated NOD/SCID mouse model assessed as reduction in ERalpha degradation at 10 mg/kg, po and measured after 18 hrs post last dose relative to control; set-up: scale not given: the % may be the effect or the level left
[25] = Antitumor activity in tamoxifen-resistant human MCF7 cells xenografted in 17beta-estradiol-treated NOD/SCID mouse model assessed as tumor growth inhibition at 30 mg/kg, po QD for 28 days in the presence of palbociclib at 60 mg/kg relative to control; format: functional; conditions: tamoxifen-resistant MCF7 cell, 672 h, time 28 day, read-out: TGI
MCF7 [26] = experiment: animal or person; conditions: Mus musculus, MCF7, po, 672 h, read-out: TGI; remark: listed apart in the source
Description: Antitumor activity in human MCF7 cells xenografted in 17beta-estradiol-treated NOD/SCID mouse model assessed as tumor growth inhibition at 30 mg/kg, po QD for 28 days in the presence of palbociclib at 60 mg/kg relative to control

[27] = Antitumor activity in tamoxifen-resistant human MCF7 cells xenografted in 17beta-estradiol-treated NOD/SCID mouse model assessed as tumor growth inhibition at 30 mg/kg, po QD for 28 days relative to control; format: functional; conditions: tamoxifen-resistant MCF7 cell, 672 h, time 28 day, read-out: TGI
MCF7 [28] = experiment: animal or person; conditions: Mus musculus, MCF7, 18 h, read-out: TGI
Description: Antitumor activity in human MCF7 cells xenografted in 17beta-estradiol-treated NOD/SCID mouse model assessed as tumor growth inhibition at 30 mg/kg, sc and measured after 18 hrs post last dose

[29] = AUC (0-24hrs) in human MCF7 cells xenografted in 17beta-estradiol-treated NOD/SCID mouse model at 30 mg/kg, po and measured after 18 hrs post last dose; conditions: in vivo
[30] = Cmax in human MCF7 cells xenografted in 17beta-estradiol-treated NOD/SCID mouse model at 10 mg/kg, po and measured after 18 hrs post last dose; conditions: in vivo
MCF7 [31] = experiment: animal or person; conditions: Mus musculus, MCF7, 336 h, read-out: TGI
Description: Antitumor activity in human MCF7 cells xenografted in 17beta-estradiol-treated NOD/SCID mouse model assessed as tumor growth inhibition at 200 mg/kg, sc BIW for 2 weeks in the presence of palbociclib at 60 mg/kg relative to control

[32] = target: T2, Protein cereblon/Estrogen receptor (Homo sapiens); experiment: Protac activity at E3 ubiquitin-protein ligase/ERalpha in human MCF7 cells xenografted in 17beta-estradiol-treated NOD/SCID mouse model assessed as reduction in ERalpha degradation at 30 mg/kg, po and measured after 18 hrs post last dose relative to control; set-up: scale not given: the % may be the effect or the level left
[33] = AUC (0-24hrs) in human MCF7 cells xenografted in 17beta-estradiol-treated NOD/SCID mouse model at 10 mg/kg, po and measured after 18 hrs post last dose; conditions: in vivo
[34] = AUC (0-24hrs) in human MCF7 cells xenografted in 17beta-estradiol-treated NOD/SCID mouse model at 3 mg/kg, po and measured after 18 hrs post last dose; conditions: in vivo
[35] = Cmax in human MCF7 cells xenografted in 17beta-estradiol-treated NOD/SCID mouse model at 3 mg/kg, po and measured after 18 hrs post last dose; conditions: in vivo
MCF7 [36] = experiment: animal or person; conditions: Mus musculus, MCF7, 18 h, read-out: TGI; remark: listed apart in the source
Description: Antitumor activity in human MCF7 cells xenografted in 17beta-estradiol-treated NOD/SCID mouse model assessed as tumor growth inhibition at 10 mg/kg, sc and measured after 18 hrs post last dose

[37] = Cmax in human MCF7 cells xenografted in 17beta-estradiol-treated NOD/SCID mouse model at 30 mg/kg, po and measured after 18 hrs post last dose; conditions: in vivo

CCNCCc1ccc(CN(CC)c2cc(OC)ccc2[C@@H]2CCc3cc(O)ccc3C2)cc1 [ELACESTRANT]
inhibition in vivo at 90 mg/kg (MCF7 [1]): 97%
inhibition in vivo at 120 mg/kg (MCF7 [2]): 96%
inhibition in vivo at 30 mg/kg (MCF7 [3]): 66%
inhibition in vivo at 60 mg/kg (MCF7 [4]): 88%

CN(C)C(=O)/C=C/CNCCOc1ccc(/C(=C(/CC(F)(F)F)c2ccccc2)c2ccc3[nH]nc(F)c3c2)cn1 [H3B-6545 FREE BASE]
Vd [5]: 1.2 L/kg
GI50 (MCF7 [6]): 0.3 nM
half-life [7]: 4 h
half-life [8]: 2.3 h
Vd [9]: 3 L/kg
F [10]: 6.2%
AUC [11]: 14200 ng·h/mL
bioavailability [12]: 26%
clearance [13]: 18.2 mL/min/kg
Cmax [14]: 1200 ng/mL
AUC at 24 h [15]: 2500 ng·h/mL
Cmax [16]: 420 ng/mL

Oc1ccc2c3c(cnc2c1)-c1ccc(C(F)(F)F)cc1O[C@@H]3c1ccc(OCCN2CC(CF)C2)cc1 [IMLUNESTRANT]
pIC50 (MCF7 [17]): 8.52
pIC50 (MCF7 [18]): 7.77
inhibition [19]: > 75%
inhibition [20]: > 75%

CC(=O)c1c(C)c2cnc(Nc3ccc(N4CCNCC4)cn3)nc2n(C2CCCC2)c1=O [PALBOCICLIB]
inhibition in vivo at 60 mg/kg [21]: 91%

O=C1CC[C@H](N2Cc3cc(N4CCN(CC5CCN(c6ccc([C@@H]7c8ccc(O)cc8CC[C@@H]7c7ccccc7)cc6)CC5)CC4)ccc3C2=O)C(=O)N1 [VEPDEGESTRANT]
inhibition in vivo at 30 mg/kg (MCF7 [22]): 105%
Activity [23]: 95%
Activity [24]: 97%
inhibition in vivo at 30 mg/kg [25]: 113%
inhibition in vivo at 30 mg/kg (MCF7 [26]): 131%
inhibition in vivo at 30 mg/kg [27]: 65%
inhibition in vivo at 30 mg/kg (MCF7 [28]): 124%
AUC(0-t) at 18 h [29]: 5720 ng·h/mL
Cmax [30]: 312 ng/mL
inhibition in vivo at 200 mg/kg (MCF7 [31]): 108%
Activity [32]: 94%
AUC(0-t) at 18 h [33]: 2540 ng·h/mL
AUC(0-t) at 18 h [34]: 658 ng·h/mL
Cmax [35]: 84 ng/mL
inhibition in vivo at 10 mg/kg (MCF7 [36]): 98%
Cmax [37]: 962 ng/mL
